Reference: patent publication US20260053932A1, “COMPOUNDS AND METHODS FOR THE TARGETED DEGRADATION OF ANDROGEN RECEPTOR AND ASSOCIATED METHODS OF USE” (Arvinas Operations, Inc., priority 2020, published 2026)
Like-named read-outs stand apart in the source and are kept apart here.

Test system: androgen receptor (AR) in LNCaP and/or VCaP cells
Experiment: Androgen Receptor ELISA assay (AR degradation)
Assay type: cell-based
In short: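 VCaP cells grown ≥3 days, then treated 5 h with compound in media containing 1 nM R1881 (10× stock). Cells lysed and AR quantified by sandwich ELISA (mouse AR detection Ab, HRP anti-mouse, TMB). DC50 and Dmax derived from AR degradation.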

[1] = LNCaP and/or VCaP cells, 5 hours incubation, media with R1881, read-out: DC50 Code* (degradation of AR ELISA)
[2] = degradation of AR ELISA in LNCaP and/or VCaP cells, Table 2C, read-out: DC50 Code*

Row | Structure (SMILES) | DC50 [2] [nM] | also measured
1 | COCC(C)N(CC1CCN(c2cnc(C(=O)N[C@H]3CC[C@H](Oc4ccc(C#N)c(Cl)c4)CC3)cn2)CC1)[C@H]1C[C@H](Oc2ccc3c(c2)C(=O)N(C2CCC(=O)NC2=O)C3=O)C1 (stereo partly drawn) [Compound 55, N-((1r,4r)-4-(3-chloro-4-cyanophenoxy)cyclohexyl)-5-(4-((((1r,3r)-3-((2-(2,6-dioxopiperidin-3-yl)-1,3-dioxoisoindolin-5-yl)oxy)cyclobutyl)(1-methoxypropan-2-yl)amino)methyl)piperidin-1-yl)pyrazine-2-carboxamide] | – | DC50 [1]: < 1 nM
2 | COc1cc(O[C@H]2C(C)(C)[C@H](NC(=O)c3ccc(N4CCC(CN(CC(F)F)[C@H]5C[C@H](Oc6cc(OC)c7c(c6)C(=O)N(C6CCC(=O)NC6=O)C7=O)C5)CC4)cc3)C2(C)C)ccc1C#N (stereo partly drawn) [compound 235, N-((1r,3r)-3-(4-cyano-3-methoxyphenoxy)-2,2,4,4-tetramethylcyclobutyl)-4-(4-(((2,2-difluoroethyl)((1r,3r)-3-((2-(2,6-dioxopiperidin-3-yl)-7-methoxy-1,3-dioxoisoindolin-5-yl)oxy)cyclobutyl)amino)methyl)piperidin-1-yl)benzamide] | < 1 | –
3 | COc1cc(O[C@H]2C(C)(C)[C@H](NC(=O)c3c(C)nc(N4CCC(CN(C(C)C)[C@H]5C[C@H](Oc6ccc7c(c6)C(=O)N(C6CCC(=O)NC6=O)C7=O)C5)CC4)nc3C)C2(C)C)ccc1C#N (mixture of isomers) [compound 211, rac-N-((1r,3r)-3-(4-cyano-3-methoxyphenoxy)-2,2,4,4-tetramethylcyclobutyl)-2-(4-((((1r,3r)-3-((2-(2,6-dioxopiperidin-3-yl)-1,3-dioxoisoindolin-5-yl)oxy)cyclobutyl) (isopropyl)amino)methyl)piperidin-1-yl)-4,6-dimethylpyrimidine-5-carboxamide] | < 1 | –
4 | CC1(C)[C@H](NC(=O)c2ccc(N3CCC(CN4CCN(c5ccc6c(c5)C(=O)N([C@@]5(C#N)CCC(=O)NC5=O)C6)CC4)CC3)cc2)C(C)(C)[C@H]1Oc1ccc(C#N)c(Cl)c1 [compound 234, N-((1r,3r)-3-(3-chloro-4-cyanophenoxy)-2,2,4,4-tetramethylcyclobutyl)-4-(4-((4-(2-((R)-3-cyano-2,6-dioxopiperidin-3-yl)-3-oxoisoindolin-5-yl)piperazin-1-yl)methyl)piperidin-1-yl)benzamide] | < 1 | –
5 | Cc1cc(O[C@H]2C(C)(C)[C@H](NC(=O)c3ccc(CN4CCOC[C@H]4CN4CCN(c5ccc6c(c5)C(=O)N(C5CCC(=O)NC5=O)C6=O)CC4)cc3)C2(C)C)cc(C)c1C#N (stereo partly drawn) [compound 183, N-((1r,3R)-3-(4-cyano-3,5-dimethylphenoxy)-2,2,4,4-tetramethylcyclobutyl)-4-(((3R)-3-((4-(2-(2,6-dioxopiperidin-3-yl)-1,3-dioxoisoindolin-5-yl)piperazin-1-yl)methyl)morpholino)methyl)benzamide] | < 1 | –
6 | COc1cc(O[C@H]2CC[C@H](NC(=O)c3cnc(N4CCC(CN(C(C)C)[C@H]5CC[C@H](Oc6ccc7c(c6)CN(C6CCC(=O)NC6=O)C7=O)CC5)CC4)cn3)CC2)ccc1C#N (stereo partly drawn) [Compound 19, N-((1r,4r)-4-(4-cyano-3-methoxyphenoxy)cyclohexyl)-5-(4-((((1r,4r)-4-((2-(2,6-dioxopiperidin-3-yl)-1-oxoisoindolin-5-yl)oxy)cyclohexyl) (isopropyl)amino)methyl)piperidin-1-yl)pyrazine-2-carboxamide] | – | DC50 [1]: < 1 nM
7 | COCCOCCN(CC1CCN(c2ncc(C(=O)N[C@H]3C(C)(C)[C@H](Oc4cc(C)c(C#N)c(C)c4)C3(C)C)cn2)CC1)[C@H]1C[C@H](Oc2ccc3c(c2)C(=O)N(C2CCC(=O)NC2=O)C3=O)C1 (stereo partly drawn) [compound 89, N-((1r,3r)-3-(4-cyano-3,5-dimethylphenoxy)-2,2,4,4-tetramethylcyclobutyl)-2-(4-((((1r,3r)-3-((2-(2,6-dioxopiperidin-3-yl)-1,3-dioxoisoindolin-5-yl)oxy)cyclobutyl)(2-(2-methoxyethoxy)ethyl)amino)methyl)piperidin-1-yl)pyrimidine-5-carboxamide] | < 1 | –
8 | COc1cc(O[C@H]2C[C@H](N(CC(F)F)CC3CCN(c4cnc(C(=O)N[C@H]5C(C)(C)[C@H](Oc6cc(C)c(C#N)c(C)c6)C5(C)C)cn4)CC3)C2)cc2c1C(=O)N(C1CCC(=O)NC1=O)C2=O (stereo partly drawn) [compound 246, N-((1r,3r)-3-(4-cyano-3,5-dimethylphenoxy)-2,2,4,4-tetramethylcyclobutyl)-5-(4-(((2,2-difluoroethyl)((1r,3r)-3-((2-(2,6-dioxopiperidin-3-yl)-7-methoxy-1,3-dioxoisoindolin-5-yl)oxy)cyclobutyl)amino)methyl)piperidin-1-yl)pyrazine-2-carboxamide] | – | DC50 (degradation of AR ELISA in LNCaP and/or VCaP cells, read-out: DC50 Code*): 10 to 100 nM

More lines, main results first:

Row | DC50 [2] [nM] | Structure (SMILES) | also measured
9 | 1 to 10 | Cc1cc(O[C@H]2C(C)(C)[C@H](NC(=O)c3ncc(N4CCC(CN(C(C)C)[C@H]5C[C@H](Oc6ccc7c(c6)C(=O)N(C6CCC(=O)NC6=O)C7=O)C5)CC4)cn3)C2(C)C)cc(C)c1C#N (stereo partly drawn) [compound 132, N-((1r,3r)-3-(4-cyano-3,5-dimethylphenoxy)-2,2,4,4-tetramethylcyclobutyl)-5-(4-((((1r,3r)-3-((2-(2,6-dioxopiperidin-3-yl)-1,3-dioxoisoindolin-5-yl)oxy)cyclobutyl) (isopropyl)amino)methyl)piperidin-1-yl)pyrimidine-2-carboxamide] | –
10 | < 1 | CC(C)N(CC1CC2(C1)CN(c1ncc(C(=O)N[C@H]3C(C)(C)[C@H](Oc4ccc(C#N)c(Cl)c4)C3(C)C)cn1)C2)[C@H]1C[C@H](Oc2ccc3c(c2)C(=O)N(C2CCC(=O)NC2=O)C3=O)C1 (stereo partly drawn) [compound 87, N-((1r,3r)-3-(3-chloro-4-cyanophenoxy)-2,2,4,4-tetramethylcyclobutyl)-2-(6-((((1r,3r)-3-((2-(2,6-dioxopiperidin-3-yl)-1,3-dioxoisoindolin-5-yl)oxy)cyclobutyl) (isopropyl)amino)methyl)-2-azaspiro[3.3]heptan-2-yl)pyrimidine-5-carboxamide] | –
11 | 1 to 10 | COc1cc(O[C@H]2C(C)(C)[C@H](NC(=O)c3cnc(N4CCC(CN(CC(F)F)[C@H]5C[C@H](Oc6cc(OC)c7c(c6)C(=O)N(C6CCC(=O)NC6=O)C7=O)C5)CC4)cn3)C2(C)C)ccc1C#N (stereo partly drawn) [compound 135, N-((1r,3r)-3-(4-cyano-3-methoxyphenoxy)-2,2,4,4-tetramethylcyclobutyl)-5-(4-(((2,2-difluoroethyl)((1r,3r)-3-((2-(2,6-dioxopiperidin-3-yl)-7-methoxy-1,3-dioxoisoindolin-5-yl)oxy)cyclobutyl)amino)methyl)piperidin-1-yl)pyrazine-2-carboxamide] | –
12 | < 1 | CC(C)N(CC1CCN(c2ncc(C(=O)N[C@H]3C(C)(C)[C@H](Oc4ccc(C#N)c(Cl)c4)C3(C)C)cn2)CC1)[C@H]1CC[C@H](Oc2ccc3c(c2)C(=O)N(C2CCC(=O)NC2=O)C3=O)CC1 (stereo partly drawn) [compound 84, N-((1r,3r)-3-(3-chloro-4-cyanophenoxy)-2,2,4,4-tetramethylcyclobutyl)-2-(4-((((1r,4r)-4-((2-(2,6-dioxopiperidin-3-yl)-1,3-dioxoisoindolin-5-yl)oxy)cyclohexyl) (isopropyl)amino)methyl)piperidin-1-yl)pyrimidine-5-carboxamide] | –
